Measurements as given in US20240016769A1, “Method for preparing compound or biological drug enhancing CNPase activity for treating heart diseases” (ZHUHAI YUANZHI HEALTH TECH CO. LTD., priority 2020, published 2024).

Test system: CNPase
Assay: CNPase enzyme activity in Ang-II induced cardiac hypertrophy cells
Type: cell-based
Conditions: n = 3
Description: The enzyme activity of CNPase in hypertrophic myocardium was detected by the detection method of calf intestinal alkaline phosphatase activity.

Q: How did the CNPase activity (STVNa + Ang II, cardiac hypertrophy induced by Ang-II, Control 1.000, Ang-II alone 0.2266) turn out when `C[C@@]12CC[C@@H]3[C@@](CC[C@H]4[C@@]3(C)CCC[C@@]4(C)C(=O)[O-])(CC1=O)C2.[Na+]` [STVNa, sodium isosteviol] was run?
A: The CNPase activity was 0.9629 ± 0.411.

Q: What about the CNPase activity (STVNa + Ang II, cardiac hypertrophy induced by Ang-II, Control 1.000, Ang-II alone 0.2266, listed as sodium isosteviol) of the same molecule?
A: The CNPase activity was “enhances CNPase activity”.

Q: What about the CNPase activity (STVNa alone, no Ang-II, Control 1.000) of the same molecule?
A: The CNPase activity was 0.9326 ± 0.241.
